As a reminder, the Kp is tissue or fluid exposure divided by exposure in the circulation.

Data set [1] can be described thus: Stability in mouse plasma. Type of data set: in vitro ADME. To be noted: mouse, plasma, 1 h, 10 μM.
Method: SDC-TRAP-0022 and SDC-TRAP-0028 were incubated in human and mouse plasma for 2 h at 37° C. and assayed for integrity at 0.25, 0.5, 1 and 2 h. The values reported below are the remaining of the parent compound at the end of the 2 h incubation period.
This solution was used to precipitate all plasma samples in the study. 200 μL was pipetted into a 96 deepwell plate over dry ice. 10 μL of 1 mM stock in DMSO was added to a 1.5 mL microfuge tube, then 990 μL of plasma. Samples were mixed by vortex, then 50 μL of each sample was added in triplicate to a 96-well plate containing internal standard solution. This was designated the 0 hour time point sample. 250 μL of the remaining plasma sample was added to each of four 96 deepwell plates—one per time point. Samples were incubated at 37° C. with gentle shaking for 0.25, 0.5, and 1 hour. After each time point, one plate of each sample was removed from the shaker and placed on wet ice for approximately 2 minutes. 50 μL plasma aliquots (in triplicate) were added to the deepwell plate containing internal standard solution. After the last time point was extracted, the 96 deepwell plate was vortexed, then centrifuged at 2-8° C. 150 μL of supernatant was collected and 25 μL of water was added. Samples were mixed and analyzed by LC-MS/MS.
The stability of seven SDC-TRAP types in mouse plasma was measured as follows. 990 μL mouse plasma aliquots from a common stock were spiked with 10 μL of 1 mM stock of one of seven SDC-TRAP samples identified in the table below. Each sample was mixed and divided into 250 μL aliquots, each representing time points 0, 15 minutes, 30 minutes or 1 hour. At the prescribed time point, 3×50 μL samples were each mixed with 200 μL of methanol containing internal standard and held on dry ice until all time point samples were extracted. The samples collectively were vortex mixed for 1.5 minutes at 1500 rpm, then centrifuged at 4400 rpm for 10 minutes at 8° C.
The nature of data set [2]: Tissue distribution of SDC-TRAPs in tumor-bearing mice (plasma, tumor, heart). Conditions: mouse, in vivo.
Method: Using the 10 mM stock solutions of the SDC-TRAP molecule and its Hsp90i binding moiety and effector moiety in DMSO, spiking solutions were prepared at 0.025, 0.05, 0.1, 0.5, 1, 5, 10, 50, 100, 250, and 500 μM in DMSO. 5 μL of each spiking solution was added to a 96-deep well plate.
Quality control standards were prepared from 5 μL of 0.1, 1, and 10 μM calibration standard spiking solution added in triplicate into 96-deep well plate and adding 50 μL of matrix (plasma or homogenized tumor).
To prepare test samples, test plasma was diluted as needed using blank plasma. Tumor samples were pulverized in liquid nitrogen, weighed, and homogenized in PBS at 5× volume to sample weight. 50 μL of unknown plasma or homogenized tumor sample was mixed with 5 μL of DMSO. The samples were extracted by precipitating calibration standards, QC standards, and unknown samples with 200 μL of internal standard solution. The samples were mixed by vortex at room temperature for approximately 1.5 minutes, then centrifuge at 2-8° C. 150 μL of supernatant was collected and 25 μL of water added. Samples were mixed and analyzed by LC-MS/MS.
Samples of plasma, heart and tumor were excised from a euthanized mouse, homogenized in PBS at 5 times tissue weight and diluted in 5 μL DMSO/50 μL sample. Prior to analysis, 55 μL samples and calibration standards were precipitated in 200 μL methanol in 96-well plates. Samples were mixed on a vortex mixer for 1.5 minutes at 1500 rpm at room temperature, then centrifuged at 4400 rpm for 10 minutes at 8° C. 150 μL of each supernatant was transferred to a well of a new 96-well plate, and 25 μL of water was added and mixed with the sample. […] For the analysis of samples from female SCID mice, a gradient of solvent A (water/0.1% formic acid) and B (acetonitrile/0.1% formic acid) was used as in Table A below.
The subject of data set [3] is H 3211 NSLC cells. Put plainly: IC50 of continuous and pulsed exposure to SDC-TRAPs. Type of data set: cell-based.
Where [4] appears, read: 1 h, read-out: IC50, 1 h-pulse/71 h-compound free, H 3211 NSLC cells, 7.5 × 10^3 cells/well, 1st of 2 columns.
Where [5] appears, read: 1 h, read-out: IC50, 1 h-pulse/71 h-compound free, H 3211 NSLC cells, 7.5 × 10^3 cells/well, 2nd of 2 columns.
Setting [6] is: 72 h, read-out: IC50, 72 h-continuous, H 3211 NSLC cells, 7.5 × 10^3 cells/well, 1st of 3 columns.
[7] abbreviates: 72 h, read-out: IC50, 72 h-continuous, H 3211 NSLC cells, 7.5 × 10^3 cells/well, 2nd of 3 columns.
Where [8] appears, read: 72 h, read-out: IC50, 72 h-continuous, H 3211 NSLC cells, 7.5 × 10^3 cells/well, 3rd of 3 columns.

pIC50: −log10 of the molar value. Where two headings read alike, the source gives them in different places.

On to `CC(C)c1cc(-c2nnc(O)n2-c2ccc(CC3CCN(CC(=O)Nc4cccc5c4CN(C4CCC(=O)NC4=O)C5=O)CC3)cc2)c(O)cc1O` (stereo not drawn) [SDC-TRAP-0116, 2-(4-(4-(3-(2,4-dihydroxy-5-isopropylphenyl)-5-hydroxy-4H-1,2,4-triazol-4-yl)benzyl)piperidin-1-yl)-N-(2-(2,6-dioxopiperidin-3-yl)-1-oxoisoindolin-4-yl) acetamide], for which the “% Remaining” value in data set [1] was determined as 91.1%. This compound had a concentration ratio (Kp) at 48 h in data set [2] of 4.65.

For the compound `CCc1c2c(nc3ccc(O)cc13)-c1cc3c(c(=O)n1C2)COC(=O)[C@]3(O)CC` [SN-38], in data set [2] (1 h), the “Plasma Conc.” value came to 4.34 µM and the “Tumor/Plasma Ratio” value came out at 0.11. Further, the concentration at 1 h in data set [2] (Plasma Conc.) came to 8.6 µM. The Kp at 1 h in data set [2] (Tumor/Plasma Ratio) turned out to be 0.07.

For the compound `CCc1c2c(nc3ccc(OCC(=O)NCCn4ccc5cc(-n6c(O)nnc6-c6cc(C(C)C)c(O)cc6O)ccc54)cc13)-c1cc3c(c(=O)n1C2)COC(=O)C3(O)CC` (stereo not drawn) [SDC-TRAP-0023, 2-((4,11-diethyl-4-hydroxy-3,14-dioxo-3,4,12,14-tetrahydro-1H-pyrano[3′,4′: 6,7]indolizino[1,2-b]quinolin-9-yl)oxy)-N-(2-(5-(3-(2,4-dihydroxy-5-isopropylphenyl)-5-hydroxy-4H-1,2,4-triazol-4-yl)-1H-indol-1-yl)ethyl)acetamide], the pIC50 is less than 5.52 in data set [3] (setting [4]); less than 5.52 in data set [3] (setting [5]); 7.23 in data set [3] (setting [6]); 6.62 in data set [3] (setting [7]); 6.95 in data set [3] (setting [8]).

Turning to `CC(C)c1cc(-c2nnc(O)n2-c2ccc3c(ccn3CCN(C)C(=O)c3ccc(CCc4c[nH]c5nc(N)[nH]c(=O)c45)cc3)c2)c(O)cc1O` [SDC-TRAP-0019, 4-(2-(2-amino-4-oxo-4,7-dihydro-3H-pyrrolo[2,3-d]pyrimidin-5-yl)ethyl)-N-(2-(5-(3-(2,4-dihydroxy-5-isopropylphenyl)-5-hydroxy-4H-1,2,4-triazol-4-yl)-1H-indol-1-yl)ethyl)-N-methylbenzamide], the pIC50 in data set [3] (setting [4]) is less than 5.52; in data set [3] (setting [5]), less than 5.52; in data set [3] (setting [6]), 6.68; in data set [3] (setting [7]) it was 6.15; in data set [3] (setting [8]) it was 6.59.

`CC(C)c1cc(-c2nnc(O)n2-c2ccc3c(ccn3CCN(C)C(=O)NCC(=O)Nc3cccc4c3CN(C3CCC(=O)NC3=O)C4=O)c2)c(O)cc1O` (stereo not drawn) [SDC-TRAP-0021, 2-(3-(2-(5-(3-(2,4-dihydroxy-5-isopropylphenyl)-5-hydroxy-4H-1,2,4-triazol-4-yl)-1H-indol-1-yl)ethyl)-3-methylureido)-N-(2-(2,6-dioxopiperidin-3-yl)-1-oxoisoindolin-4-yl)acetamide]: the pIC50 in data set [3] (setting [4]) was less than 5.52; in data set [3] (setting [5]), less than 5.52; in data set [3] (setting [6]), 6.37; in data set [3] (setting [7]), 6.09; in data set [3] (setting [8]), 6.04.

As for `CC(C)c1cc(-c2nnc(O)n2-c2ccc3c(ccn3CCOCCNC(=O)c3ccc(CCc4c[nH]c5nc(N)[nH]c(=O)c45)cc3)c2)c(O)cc1O` [SDC-TRAP-0020, 4-(2-(2-amino-4-oxo-4,7-dihydro-3H-pyrrolo[2,3-d]pyrimidin-5-yl)ethyl)-N-(2-(2-(5-(3-(2,4-dihydroxy-5-isopropylphenyl)-5-hydroxy-4H-1,2,4-triazol-4-yl)-1H-indol-1-yl)ethoxy)ethyl)benzamide], the pIC50 in data set [3] (setting [4]) is less than 5.52; in data set [3] (setting [5]) it was less than 5.52; in data set [3] (setting [6]), 6.23; in data set [3] (setting [7]) it was 5.58; in data set [3] (setting [8]), 5.70.

On to `CNCCn1ccc2cc(-n3c(O)nnc3-c3cc(C(C)C)c(O)cc3O)ccc21` [SDC-TRAP-0004], for which the pIC50 in data set [3] (read-out: IC50, 1 h-pulse/71 h-compound free, H 3211 NSLC cells, 7.5 × 10^3 cells/well, 1st of 2 columns) is 6.20; in data set [3] (read-out: IC50, 1 h-pulse/71 h-compound free, H 3211 NSLC cells, 7.5 × 10^3 cells/well, 2nd of 2 columns) it was 5.76; in data set [3] (read-out: IC50, 72 h-continuous, H 3211 NSLC cells, 7.5 × 10^3 cells/well, 1st of 3 columns), 7.66; in data set [3] (read-out: IC50, 72 h-continuous, H 3211 NSLC cells, 7.5 × 10^3 cells/well, 2nd of 3 columns) it was 7.22; in data set [3] (read-out: IC50, 72 h-continuous, H 3211 NSLC cells, 7.5 × 10^3 cells/well, 3rd of 3 columns), 7.40.

As to `CCc1c2c(nc3ccc(OCC(=O)N(C)CCn4ccc5cc(-n6c(O)nnc6-c6cc(C(C)C)c(O)cc6O)ccc54)cc13)-c1cc3c(c(=O)n1C2)COC(=O)C3(O)CC` (stereo not drawn) [SDC-TRAP-0027, 2-((4,11-diethyl-4-hydroxy-3,14-dioxo-3,4,12,14-tetrahydro-1H-pyrano[3′,4′:6,7]indolizino[1,2-b]quinolin-9-yl)oxy)-N-(2-(5-(3-(2,4-dihydroxy-5-isopropylphenyl)-5-hydroxy-4H-1,2,4-triazol-4-yl)-1H-indol-1-yl)ethyl)-N-methylacetamide], the pIC50 is less than 5.52 in data set [3] (setting [4]), less than 5.52 in data set [3] (setting [5]), 5.76 in data set [3] (setting [7]) and 5.87 in data set [3] (setting [8]).

Turning to `CCc1c2c(nc3ccc(O)cc13)-c1cc3c(c(=O)n1C2)COC(=O)C3(CC)OC(=O)CCCNC(=O)c1cc2cc(-n3c(O)nnc3-c3cc(C(C)C)c(O)cc3O)ccc2n1C` (stereo not drawn) [SDC-TRAP-0024, 4,11-diethyl-9-hydroxy-3,14-dioxo-3,4,12,14-tetrahydro-1H-pyrano[3′,4′:6,7]indolizino[1,2-b]quinolin-4-yl 4-(5-(3-(2,4-dihydroxy-5-isopropylphenyl)-5-hydroxy-4H-1,2,4-triazol-4-yl)-1-methyl-1H-indole-2-carboxamido)butanoate], the pIC50 in data set [3] (setting [6]) was 7.12.

On to `CCc1c2c(nc3ccc(OCC(=O)N(C)CCOCCn4ccc5cc(-n6c(O)nnc6-c6cc(C(C)C)c(O)cc6O)ccc54)cc13)-c1cc3c(c(=O)n1C2)COC(=O)C3(O)CC` (stereo not drawn) [SDC-TRAP-0028, 2-((4,11-diethyl-4-hydroxy-3,14-dioxo-3,4,12,14-tetrahydro-1H-pyrano[3′,4′:6,7]indolizino[1,2-b]quinolin-9-yl)oxy)-N-(2-(2-(5-(3-(2,4-dihydroxy-5-isopropylphenyl)-5-hydroxy-4H-1,2,4-triazol-4-yl)-1H-indol-1-yl)ethoxy)ethyl)-N-methylacetamide], for which the “% Remaining” value in data set [1] was 41%. Further, the pIC50 was less than 5.52 in data set [3] (setting [4]); less than 5.52 in data set [3] (setting [5]); 6.33 in data set [3] (setting [6]); 5.75 in data set [3] (setting [7]); 6.30 in data set [3] (setting [8]).

With `CC(C)c1cc(-c2nnc(O)n2-c2ccc3c(ccn3CCOCCNC(=O)CCCC(=O)Nc3cccc4c3CN(C3CCC(=O)NC3=O)C4=O)c2)c(O)cc1O` (stereo not drawn) [SDC-TRAP-0015, N1-(2-(2-(5-(3-(2,4-dihydroxy-5-isopropylphenyl)-5-hydroxy-4H-1,2,4-triazol-4-yl)-1H-indol-1-yl)ethoxy)ethyl)-N5-(2-(2,6-dioxopiperidin-3-yl)-1-oxoisoindolin-4-yl)glutaramide], the pIC50 in data set [3] (setting [4]) is less than 5.52; in data set [3] (setting [5]), less than 5.52; in data set [3] (setting [7]) it was 5.65.

The values above are taken from US10675360B2 (MADRIGAL PHARMACEUTICALS, INC., priority 2014, dated 2020).
